Reference: patent publication US9511019B2, “Pharmaceutical compositions for treating IBD” (NORDIC PHARMA, priority 2009, dated 2016)

Tested on: TNBS colitis
Assay: TNBS colitis in mice, macroscopic lesions by Wallace criteria
Assay type: in vivo, C57b16 mice
Details: for Wallace score (macroscopic lesions, scale 0 to 10): TNBS colitic mice, daily intrarectal administration from 3 days before to 4 days after induction, 5-ASA 0.5 mg, PMSB 2.34 mg/kg/day, untreated control 3.4; for action percentage in comparison to the Wallace score of untreated control: Wallace score 3.4 = 0% action, score 0 = 100% action
Procedure: Induction of TNBS Colitis and Evaluation of Macroscopic Lesions in the Colitis after Administration of 5-ASA, PMSB, and Synergistic Combination of 5-ASA and PMSB.
Animal experiments were performed in accredited establishments according to governmental guidelines.
Colitis induction was conducted on C57b16 mice aged of 6 weeks old. They were anesthetized for 90-120 minutes before they received intrarectal administration of TNBS (trinitrobenzene sulphonic acid) (40 μl, 150 mg/kg) dissolved in a 1:1 mixture of 0.9% NaCl with 100% ethanol. Control mice received a 1:1 mixture of 0.9% NaCl with 100% ethanol or a saline solution using the same technique. Animals were sacrificed 4 days after TNBS administration. The anti-inflammatory effect of 5-ASA and steroid was evaluated by daily administration of these compounds by intrarectal route in a final volume of 50 μl, starting 3 days before the colitis induction and during all the experiment (4 days after colitis induction). Dosage amount of 5-ASA was 0.5 mg (50 μl of 1 g/100 ml stock), 65 mM and the dosage amount of PMSB was 2.34 mg/kg/day.
The macroscopic assessments of colitis were performed blindly by two investigators. The colon of each mouse was examined under a dissecting microscope (magnification, ×5), to evaluate the macroscopic lesions according to the Wallace criteria. The score rates macroscopic lesions on a scale of from 0 to 10 based on the features reflecting inflammation, such as hyperaemia, thickening of the bowel, and extent of ulceration. The Wallace scale is defined as follows. A score of 0 represents an absence of inflammation, a score of 1, a hyperaemia without ulcerations, a score of 2 a hyperaemia with a thickening of the mucosa without ulcerations, a score of 3, one ulceration without thickening of the colonic wall, a score of 4, two or more of ulcerative or inflammatory sites, a score of 5, two or more ulcerative and inflammatory sites with an extent of more than 1 cm, and for a score of from 6 to 10, an ulcerative or inflammatory site of growing size of from 2 to 6 cm.
A score of Wallace of 3.4 thus indicates an action of 0% and a score of 0, (no lesion) indicates 100% action. […] The action that the active ingredients would be expected to have in combination was calculated according to the Colby formula, and a comparison in the actions was then observed.
The Colby formula is E=X+Y−(XxY)/100, wherein E is the expected degree of action, expressed in %, when the active ingredients 5-ASA and prednisolone PMSB are used in combination. […] It is the degree of action converted from the Wallace score obtained for the A group. […] It is the degree of action converted from the Wallace score obtained for the P group.

Structure (SMILES)	Wallace score (macroscopic lesions, scale 0 to 10)	action percentage in comparison to the Wallace score of untreated control [%]
Nc1ccc(O)c(C(=O)O)c1 [Formulation 5-ASA, 5-aminosalicylic acid]	1.25	63
C[C@]12C=CC(=O)C=C1CC[C@@H]1[C@@H]2[C@@H](O)C[C@@]2(C)[C@H]1CC[C@]2(O)C(=O)COC(=O)c1cccc(S(=O)(=O)O)c1 [PMSB, prednisolone metasulfobenzoate]	1.83	46
